The source of these data is patent publication EP0430108A2, “Use of oxetanocin-G for the treatment of varicella-zoster virus infections” (priority 1989, dated 1991).

One data set concerns YS strain (TK^+ -VZV). Kind of data set: Anti-VZV activity, plaque reduction in human fetal pulmonary cells, YS strain. It counts as cell-based, varicella-zoster virus. The settings on record: nonresistant strain of VZV (YS, TK^+); human fetal pulmonary cell monolayer, approximately 20 PFU, 5 days at 37 °C, plaque count. The method, then: (§1) Next, the anti-VZV effect of OXT-G will be described in detail by reference to the following Test Example. Anti-VZV activity: • (1) Determination method A monolayer of human fetal pulmonary cells, which had been grown in Eagle minimum essential medium containing 10 % of newborn calf serum, 60 µg/ml of kanamycin and 0.075 % of NaHCO₃, (used as a growth medium) in a 96-well microplate, was inoculated with approximately 20 PFU of various viruses and incubated at 37 °C for 2 hours. After 0.1 ml of 2 % newborn calf serum containing OXT-G was freshly supplied, the incubation was continued at 37 °C for 5 days. Plaques in each well were counted under a microscope and the ratio (%) thereof to the plaque count of a control (no addition) was calculated to prepare a graph. Based on the graph, the median effective dose (ED₅₀) was determined. The employed virus stains were as follows: YS strain: TK^+ strain (carrying thymidine kinase) isolated from a patient of varicella (TK^+ -VZV). […] Thus it is expected as an excellent anti-VZV agent.

For a further data set, the system named is YSR strain (TK^- -VZV). Kind of data set: Anti-VZV activity, plaque reduction in human fetal pulmonary cells, YSR strain. The following applies: resistant strain of VZV (YSR, TK^-, drug-resistant); human fetal pulmonary cell monolayer, approximately 20 PFU, 5 days at 37 °C, plaque count. It counts as cell-based, varicella-zoster virus. The method, then:
as §1

A short description of data set [1]: Single-dose intraperitoneal toxicity in the mouse. It counts as in vivo. The following applies: 400 mg/kg intraperitoneally, once. From the text:
OXT-G and a pharmacologically acceptable salt thereof are each characterized by a low toxicity and a low cumulative toxicity upon repeated administration.

As to `Nc1nc2c(ncn2C2OC(CO)C2CO)c(=O)[nH]1` (stereo not drawn) [OXT-G, oxetanocin-G], the antiviral effects result in the data set on YS strain (TK^+ -VZV) and with YSR strain (TK^- -VZV) was “excellent antiviral effects” in each case. Further, the symptom of intoxication entry in data set [1] was “no symptom of intoxication could be observed”.
